Test results as given in patent publication US10828316B2, “Method of treating bacterial infections” (priority 2016, dated 2020).
Values after ≈ are worked out from the molar mass of the structure shown. Where two headings read alike, the source gives them in different places.

Assays:
[1] = system: S. flexneri APV00907; experiment: MIC; format: cell-based; details: for MIC: Shigella flexneri
[2] = system: S. flexneri APV00906; experiment: MIC; format: cell-based; details: for MIC: Shigella flexneri
[3] = system: K. pneumoniae EN0262; details: commercial antibiotics, data provided by IMBIM, BMC, Uppsala University; cited from earlier work
[4] = system: S. sonnei APV00908; experiment: MIC; format: cell-based; details: for MIC: Shigella sonnei
[5] = S. flexneri APV00907, read-out: Antibiogram MIC
[6] = S. flexneri APV00906, read-out: Antibiogram MIC
[7] = S. sonnei APV00908, read-out: Antibiogram MIC

| Structure (SMILES) | MIC ([1]; APV00907, read-out: Antibiogram MIC) [µg/mL] | MIC ([2]; APV00906, read-out: Antibiogram MIC) [µg/mL] | MIC [3] [µg/mL] | MIC ([4]; APV00908, read-out: Antibiogram MIC) [µg/mL] | Antibiogram category (S, I, R, R*) ([1]; S. flexneri APV00907) | MIC [1, 5] [µg/mL] | Antibiogram category (S, I, R, R*) ([2]; S. flexneri APV00906) | MIC [2, 6] [µg/mL] | Antibiogram category (S, I, R, R*) ([4]; S. sonnei APV00908) | MIC [4, 7] [µg/mL] |
| --- | --- | --- | --- | --- | --- | --- | --- | --- | --- | --- |
| CO/N=C(\C(=O)N[C@@H]1C(=O)N2C(C(=O)O)=C(COC(C)=O)CS[C@H]12)c1csc(N)n1 [cefotaxime] | ≤ 1 | ≥ 64 | >32 | ≤ 1 | – | – | – | – | – | – |
| NCC[C@H](O)C(=O)N[C@@H]1C[C@H](N)[C@@H](O[C@H]2O[C@H](CN)[C@@H](O)[C@H](O)[C@H]2O)[C@H](O)[C@H]1O[C@H]1O[C@H](CO)[C@@H](O)[C@H](N)[C@H]1O [amikacin] | – | – | 8 (≈ 13.7 µM) | – | R* | 4 (≈ 6.83 µM) | R* | 16 (≈ 27.3 µM) | R* | 4 (≈ 6.83 µM) |
| C[C@@H](O)[C@H]1C(=O)N2C(C(=O)O)=C(S[C@@H]3CN[C@H](C(=O)N(C)C)C3)[C@H](C)[C@H]12 [meropenem] | – | – | >8 | – | – | ≤ 0.25 | – | ≤ 0.25 | – | ≤ 0.25 |
| C[C@H]1[C@H](NC(=O)/C(=N\OC(C)(C)C(=O)O)c2csc(N)n2)C(=O)N1S(=O)(=O)O [aztreonam] | – | – | >16 | – | – | – | – | – | – | – |
